In brackets after ≈: the same amount, converted by molar mass. Structures can show the parent of a compound that is named as a salt.
What was measured:
[1] = tested on: Staphylococcus aureus A355 (penicillinase-producing); assay: MIC, agar serial dilution test; conditions: 24 h
[2] = tested on: Staphylococcus aureus A321; assay: MIC, agar serial dilution test; type: cell-based; conditions: Staphylococcus aureus A321; 24 hours at 37° C; read-out: MIC
[3] = tested on: Salmonella typhi murium R 172; assay: in vivo infection test in mice; conditions: Salmonella enterica, in Mus musculus, ip
Brucella melitensis A488 = assay: microbe, parasite or virus in culture; type: cell-based; conditions: A488, 24 h
[4] = tested on: Streptococcus haemolyticus A266; assay: MIC, agar serial dilution test; type: cell-based; conditions: Streptococcus haemolyticus A266; 24 hours at 37° C; read-out: MIC
[5] = tested on: Staphylococcus aureus A 2001; assay: in vivo infection test in mice; conditions: A2001, in Mus musculus
[6] = tested on: Pasteurella multocida A723; assay: MIC, agar serial dilution test; type: cell-based; conditions: Pasteurella multocida A723; 24 hours at 37° C; read-out: MIC
[7] = tested on: Streptococcus faecalis L 80; assay: MIC, agar serial dilution test; type: cell-based; conditions: Enterococcus faecalis, L80; Streptococcus faecalis L 80; 24 hours at 37° C; read-out: MIC
[8] = tested on: Staphylococcus aureus A55; assay: MIC, agar serial dilution test; type: cell-based; conditions: Staphylococcus aureus A55; 24 hours at 37° C; read-out: MIC
[9] = tested on: Pseudomonas aeruginosa A 1058; assay: in vivo infection test in mice; conditions: A1058, in Mus musculus
[10] = tested on: Bacillus subtilis ATCC 6633; assay: MIC, agar serial dilution test; type: cell-based; conditions: ATCC6633; Bacillus subtilis ATCC 6633; 24 hours at 37° C; read-out: MIC
[11] = tested on: Staphylococcus aureus A 321; assay: in vivo infection test in mice; conditions: A321, in Mus musculus
[12] = tested on: Diplococcus pneumoniae L 54; assay: MIC, agar serial dilution test; type: cell-based; conditions: Streptococcus pneumoniae, L54; Diplococcus pneumoniae L 54; 24 hours at 37° C; read-out: MIC
[13] = tested on: Staphylococcus aureus A 2000; assay: in vivo infection test in mice; conditions: A2000, in Mus musculus
[14] = tested on: Staphylococcus aureus L160a (penicillinase-producing); assay: MIC, agar serial dilution test; conditions: 24 h
[15] = tested on: Klebsiella pneumoniae A809; assay: MIC, agar serial dilution test; type: cell-based; conditions: Klebsiella pneumoniae A809; 24 hours at 37° C; read-out: MIC
Proteus mirabilis O.T. = assay: in vivo infection test in mice; conditions: in Mus musculus

Row | Structure (SMILES) | MIC [1] [µg/mL] | MIC [2] [µg/mL] | MIC (Brucella melitensis A488) [µg/mL] | MIC [4] [µg/mL] | ED50 ([5]; ip) [mg/kg] | ED50 ([5]; po) [mg/kg] | ED50 ([5]; sc) [mg/kg] | MIC [6] [µg/mL] | MIC [7] [µg/mL] | MIC [8] [µg/mL] | MIC [10] [µg/mL] | ED50 ([11]; ip) [mg/kg] | ED50 ([11]; po) [mg/kg] | ED50 ([11]; sc) [mg/kg] | MIC [12] [µg/mL] | ED50 ([13]; ip) [mg/kg] | ED50 ([13]; po) [mg/kg] | ED50 ([13]; sc) [mg/kg] | MIC [14] [µg/mL] | MIC [15] [µg/mL] | further results
1 | CC1(C)SC2C(NC(=O)Cc3cc(-c4c(Cl)cccc4Cl)no3)C(=O)N2C1C(=O)O (stereo not shown) [Example I, Sodium salt of 6-{[3-(2,6-dichlorophenyl)isoxazol-5-yl]acetamido}-penicillanic acid] | 3 | 0.015 | 0.5 | 0.007 | > 215 | > 215 | > 215 | 2 | 50 | 0.01 | 0.007 | 10.8 | 126 | 36.9 | 0.25 | 133 | > 215 | > 215 | 1 | 100 | ED50 [3]: > 215 mg/kg; ED50 ([9]; ip): > 215 mg/kg
2 | CC1(C)S[C@@H]2C(NC(=O)Cc3onc(-c4c(Cl)cccc4Cl)c3C(=O)O)C(=O)N2[C@H]1C(=O)O (stereo partly shown) [Example V, 6-{[3-(2,6-dichlorophenyl)-4-carboxyisoxazol-5-yl]acetamido}penicillanic acid] | 12.5 (≈ 24.3 µM) | 1 (≈ 1.94 µM) | 25 (≈ 48.6 µM) | 0.5 (≈ 0.972 µM) | – | – | – | 1.5 (≈ 2.92 µM) | 25 (≈ 48.6 µM) | 1 (≈ 1.94 µM) | 0.5 (≈ 0.972 µM) | < 100 | > 215 | – | 6 (≈ 11.7 µM) | – | – | – | 3 (≈ 5.83 µM) | > 100 | ED50 (Proteus mirabilis O.T.; ip): > 300 mg/kg; ED50 (Proteus mirabilis O.T.; po): > 300 mg/kg
3 | Cc1cc(C)c(-c2cc(C(C)C(=O)NC3C(=O)N4C3SC(C)(C)C4C(=O)O)on2)c(C)c1 (stereo not drawn) [Example XI, Cyclohexylamine salt of 6{α-methyl-[3-(2,4,6-trimethyl)phenylisoxazol-5-yl]acetamido}penicillanic acid] | 12.5 | 0.06 | 3 | 0.007 | – | – | – | 50 | 1.5 | 0.12 | 0.06 | > 21.5 | > 100 | – | 0.12 | – | – | – | 12.5 | 100 | ED50 (Proteus mirabilis O.T.; ip): > 300 mg/kg; ED50 (Proteus mirabilis O.T.; po): > 300 mg/kg; ED50 ([9]; po): > 300 mg/kg
4 | CCC(Oc1ccccc1)C(=O)N[C@@H]1C(=O)N2[C@@H]1SC(C)(C)[C@@H]2C(=O)O (stereo partly shown) [Propicillin, reference compound] | – | – | – | – | 133 | > 215 | > 215 | – | – | – | – | – | 10.8 | 2.33 | – | 88 | > 215 | > 215 | – | – | –
5 | Cc1cc(C)c(-c2cc(C(Cl)C(=O)NC3C(=O)N4C3SC(C)(C)C4C(=O)O)on2)c(C)c1 (stereo not drawn) [Example IX, Cyclohexylamine salt of 6-{α-chloro-[3-(2,4,6-trimethyl)phenyl-isoxazol-5-yl]acetamido}penicillanic acid] | 25 | 0.25 | 25 | 0.06 | – | – | – | 25 | 1.5 | 0.25 | 0.12 | > 21.5 | > 100 | – | 0.12 | – | – | – | 25 | > 100 | –
6 | CC1(C)SC2C(NC(=O)C(C(N)=O)c3cc(-c4c(Cl)cccc4Cl)no3)C(=O)N2C1C(=O)O (stereo not drawn) [Example XX, 6-{α-carbamyl-[3-(2,6-dichloro)phenyl-isoxazol-5-yl]acetamido} penicillanic acid] | 3 (≈ 5.84 µM) | 0.25 (≈ 0.487 µM) | 3 (≈ 5.84 µM) | 0.03 (≈ 0.0584 µM) | – | – | – | 6 (≈ 11.7 µM) | 0.5 (≈ 0.974 µM) | 0.25 (≈ 0.487 µM) | 0.25 (≈ 0.487 µM) | – | – | – | 0.06 (≈ 0.117 µM) | – | – | – | 3 (≈ 5.84 µM) | > 100 | –

Source: patent publication US4010264A, “7-[3-Substituted isoxazol-5-yl]-acetamido-cephalosporanic acids and their anti-bacterial use” (Koninklijke Nederlandsche Gist-en Spiritusfabriek N.V., priority 1970, dated 1977)
